This note sets out measurements from patent publication US20170260186A1, “PROCESS OF PREPARING AMORPHOUS FORM OF IDELALISIB” (ScinoPharm Taiwan, Ltd., priority 2016, published 2017).

The nature of data set [1]: preliminary physicochemical stability study in recommended packaging. As to conditions: 3 months. As for the experimental part:
The double packed LDPE bag was then placed inside an aluminum foil bag with appropriate amount of desiccant between the LDPE bag and the aluminum foil bag. The aluminum bag package was then placed in a High-Density PolyEthylene (HDPE) container and stored at temperature below 25° C.

The nature of data set [2]: Dynamic Vapor Sorption (DVS) water-solid interaction. In kind it is physicochemical. As for the experimental part:
Dynamic Vapor Sorption (DVS) The sample was placed into the DVS sample pan and dried under a stream of dry nitrogen at 25° C. with 0% RH. The moisture was gradually introduced into the system with a 10% RH increment up to 90% RH and the humidity was then decreased in a similar trend for desorption phase. The sorption and desorption data were collected with equilibration set to dm/dt 0.004%/min for 5 min/step. The minimum and maximum time for each step were set to 10 and 360 min. Two sorption/desorption cycles were performed.

The mark [3] stands for this setting: accelerated condition 40° C./75% RH.
Where [4] appears, read: long term storage condition 25° C./60% RH.

With `CC[C@H](Nc1ncnc2nc[nH]c12)c1nc2cccc(F)c2c(=O)n1-c1ccccc1` [amorphous idelalisib, (S)-2-(1-(9H-purin-6-ylamino)propyl)-5-fluoro-3-phenylquinazolin-4(3H)-one], the solid form entry in data set [1] (setting [3]) and in data set [1] (setting [4]) was “remained as amorphous” each time. Moreover, the water content change result in data set [1] (setting [3]) and in data set [1] (setting [4]) was “not increased” each time. Further, the “hygroscopicity (DVS result)” value in data set [2] (DVS isotherm, FIG. 4) is on record as “hygroscopic material”. The moisture uptake entry in data set [2] (DVS, humidity changing from 0% RH to 90% RH, 25° C.) was “approximately 8.9%”.
